In BindingDB's records for doi:10.1021/jm049388p (Merck Research Laboratories, 2004):

Target: Beta-secretase 1 (Homo sapiens, UniProt P56817)
Test: In Vitro BACE1 Activity Assay
Settings: pH 4.5; 22 °C
Description: The assay was performed using a 96-well format on a HPLC equipped with four 96-well plate holders. Test compounds were preincubated with enzymes for 30min, followed by the addition of substrate. The solution was then incubated for an additional 30 min at room temperature. After the reaction was terminated, the solution was filtered, and the filtrate was subjected to HPLC analysis. The substrate and product were monitored by fluorescence detection (340nm excitation, 440 nm emission).

Beta-secretase 1, sequence (P56817 whole entry): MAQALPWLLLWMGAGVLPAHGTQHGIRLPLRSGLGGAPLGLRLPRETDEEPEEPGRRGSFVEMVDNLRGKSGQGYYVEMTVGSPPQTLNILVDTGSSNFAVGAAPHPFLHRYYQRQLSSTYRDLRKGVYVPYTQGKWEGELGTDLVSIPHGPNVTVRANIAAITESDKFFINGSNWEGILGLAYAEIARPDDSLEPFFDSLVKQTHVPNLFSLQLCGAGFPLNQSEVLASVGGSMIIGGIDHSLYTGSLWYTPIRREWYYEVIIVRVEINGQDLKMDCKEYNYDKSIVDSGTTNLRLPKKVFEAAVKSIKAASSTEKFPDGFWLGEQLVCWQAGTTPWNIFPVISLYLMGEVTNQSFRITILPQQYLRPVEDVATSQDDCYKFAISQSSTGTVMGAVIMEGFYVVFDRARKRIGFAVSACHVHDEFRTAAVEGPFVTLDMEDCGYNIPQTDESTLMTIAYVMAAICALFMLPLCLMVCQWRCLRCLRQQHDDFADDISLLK

**Q.** With `C[C@H](NC(=O)c1cc(OCC(=O)NCCCCCN)cc(OS(=O)(=O)Cc2ccccc2)c1)c1ccccc1` [3-{[(5-aminopentyl)carbamoyl]methoxy}-5-{[(1S)-1-phenylethyl]carbamoyl}phenyl 1-phenylmethanesulfonate] as the molecule, how does the IC50 read?
**A.** > 100 µM
